The subject of this assay is T lymphocytes (normal mouse spleen cells) stimulated with ConA. The assay can be described thus: Mouse Spleen Cell ConA Blastogenesis Assay. The assay is classed as cell-based, mouse (C57Bl/6). To be noted: for inhibition at 100 µg/mL / inhibition at 1 µg/mL / inhibition at 2.5 µg/mL / inhibition at 10 µg/mL / inhibition at 25 µg/mL / inhibition at 0.01 µg/mL / inhibition at 0.1 µg/mL / inhibition at 0.001 µg/mL: Mus musculus, T-lymphocyte. The text has this:
It is well known that several plant lectins, when cultured in vitro with lymphocytes, stimulate cellular activation and proliferation. Concanavolin, (ConA) selectively stimulates the blastogenic response of T lymphocytes.
Six to 8 week old male C57Bl/6 mice were purchased from Harlan Sprague Dawley (Indianapolis, Ind.).
Spleens were removed and were homogenized to obtain a single cell suspension. Erythrocytes were lysed by hypotonic shock. Upon determination of the viability and concentration of the lymphoid cells, they were adjusted to 4×10^6 cells/ml in culture medium (RPMI-1640) supplemented with 10% fetal bovine serum; 100 ug/ml streptomycin; 100 U/ml penicillin, 0.2M hepes buffer; 5×10^-5 M 2-mercaptoethanol and 2 mM glutamine). seeded into microtiter plate wells at 2×10^5 cells/0.050 ml/well. To these cultures were added various doses of experimental compounds and ConA at a final concentration of 4 or 1 ug/ml. Control cultures consisted of cells, ConA and culture medium containing the vehicle, DMSO only. […] For the testing of the methyl 1,3-O-isopropylidene-6-O-n-heptyl-α-D-fructofuranoside compound indomethacin and NDGA were used as controls. All cultures were run in triplicate.
Solutions of compounds of the invention in DMSO were prepared and dilutions were made in culture medium. Assay concentrations were either: 1, 2.5, 10, 25, 100, 300 and 750 ug/ml or 0.001, 0.01, 0.1, 1, 2.5, 10, 25 and 100 ug/ml.
Cultures were incubated for 3 days at 37° C. in a humidified atmosphere of 5% of CO2 in air. For the last 18 hours of culture, 1 uCi of ^3 H-thymidine was also incubated in each well. The cells were precipitated by a multi-channel harvester. The amount of ^3 H-thymidine incorporated by the cultures, as a measure of cell proliferation, was measured in a liquid scintillation counter. The amount of radioactive incorporation is proportional to the amount of cellular proliferation in individual wells. The students T test was used to determine the significance of the difference between experimental and control values.

Where [1] appears, read: ConA 1 ug/ml, compound 1 ug/ml, read-out: % change from control, ConA blastogenic response.
Where [2] appears, read: ConA 1 ug/ml, compound 2.5 ug/ml, read-out: % change from control, ConA blastogenic response.
Setting [3] is: ConA 1 ug/ml, compound 10 ug/ml, read-out: % change from control, ConA blastogenic response.
Setting [4] is: ConA 1 ug/ml, compound 25 ug/ml, read-out: % change from control, ConA blastogenic response.
Where [5] appears, read: ConA 1 ug/ml, compound 100 ug/ml, read-out: % change from control, ConA blastogenic response.
[6] abbreviates: ConA 4 ug/ml, compound 1 ug/ml, read-out: % change from control, ConA blastogenic response.
The mark [7] stands for this setting: ConA 4 ug/ml, compound 2.5 ug/ml, read-out: % change from control, ConA blastogenic response.
The mark [8] stands for this setting: ConA 4 ug/ml, compound 10 ug/ml, read-out: % change from control, ConA blastogenic response.
[9] abbreviates: ConA 4 ug/ml, compound 25 ug/ml, read-out: % change from control, ConA blastogenic response.
Setting [10] is: ConA 4 ug/ml, compound 100 ug/ml, read-out: % change from control, ConA blastogenic response.
Where [11] appears, read: ConA 1 ug/ml, 0.01 ug/ml, read-out: % Change from Control (Table II).
Setting [12] is: ConA 1 ug/ml, compound 0.01 ug/ml, read-out: % change from control, ConA blastogenic response.
[13] abbreviates: ConA 1 ug/ml, compound 0.1 ug/ml, read-out: % change from control, ConA blastogenic response.
The mark [14] stands for this setting: ConA 4 ug/ml, 0.01 ug/ml, read-out: % Change from Control (Table II).
[15] abbreviates: ConA 4 ug/ml, compound 0.01 ug/ml, read-out: % change from control, ConA blastogenic response.
The mark [16] stands for this setting: ConA 4 ug/ml, compound 0.1 ug/ml, read-out: % change from control, ConA blastogenic response.

SMILES strings stand for the structures. Entries after “also recorded” stand apart in the source; their conditions may differ. Read-outs that look alike come from different tables or passages of the source.

Regarding `CC1(C)OCC(C2OC3OC(C)(C)OC3C2NCCCO)O1` [IIk, 1,2:5,6-Di-O-isopropylidene-3-deoxy-3-amino-1'-(3'-hydroxy-n-propyl)-α-D-glucofuranose], the inhibition at 100 µg/mL runs as follows: (100 ug/ml, read-out: strong inhibition of ConA stimulated T lymphocyte proliferation) under 50%; under setting [5], 95%; under setting [10], 83%. Moreover, the inhibition at 1 µg/mL under setting [1] came out at 20% and the inhibition at 1 µg/mL under setting [6] was 5%. Besides, the inhibition at 2.5 µg/mL under setting [2] was 31% and the inhibition at 2.5 µg/mL under setting [7] came out at 0%. Moreover, the inhibition at 10 µg/mL reads like this: under setting [3], 38%; under setting [8], 4%. Moreover, the inhibition at 25 µg/mL is 45% under setting [4] and 5% under setting [9].
`CCCCCCCC(=O)O[C@@H]1[C@@H](CO)O[C@@]2(OC)COC(C)(C)O[C@@H]12` [Ih, methyl 1,3-O-isopropylidene-4-O-octanoyl-α-D-fructofuranoside]: the inhibition at 0.01 µg/mL runs as follows: under setting [11], -12%; under setting [12], -32%; under setting [14], -18%; under setting [15], -29%. For the same molecule, the inhibition at 0.1 µg/mL is -29% under setting [13] and -14% under setting [16]. Further, the inhibition at 1 µg/mL is -61% under setting [1] and -16% under setting [6]. Also, the inhibition at 2.5 µg/mL runs as follows: under setting [2], -63%; under setting [7], -8%. In addition, the inhibition at 10 µg/mL reads like this: under setting [3], 4%; under setting [8], 22%. In addition, the inhibition at 25 µg/mL was -39% under setting [4] and 14% under setting [9]. Moreover, the inhibition at 100 µg/mL is 74% under setting [5] and 90% under setting [10].
For the molecule `CCCCCCCC(=O)OC[C@H]1O[C@@]2(OC)COC(C)(C)O[C@H]2[C@@H]1O` [Ii, methyl 1,3-O-isopropylidene-6-O-octanoyl-α-D-fructofuranoside], the “effect on ConA T lymphocyte proliferation in words” value is given as “less potent inhibitor of the mitogen induced T lymphocyte proliferative response; also recorded: significant inhibition observed at all dose levels on the 1 ug/ml ConA cultures”. Further, the inhibition at 0.01 µg/mL under setting [11] is -11%. Also, the inhibition at 0.01 µg/mL under setting [12] was -7%. For the same molecule, under setting [13], the inhibition at 0.1 µg/mL was -21%. Besides, the inhibition at 1 µg/mL under setting [1] was -52%. The inhibition at 2.5 µg/mL under setting [2] was -62%. Moreover, the inhibition at 10 µg/mL under setting [3] is -13%. The inhibition at 25 µg/mL under setting [4] is -41%. Also, the inhibition at 100 µg/mL under setting [5] was determined as 27%. In addition, under setting [14], the inhibition at 0.01 µg/mL was -28%. In addition, under setting [15], the inhibition at 0.01 µg/mL is -37%. The inhibition at 0.1 µg/mL under setting [16] is -28%. Under setting [6], the inhibition at 1 µg/mL is -17%. The inhibition at 2.5 µg/mL under setting [7] was -22%. Under setting [8], the inhibition at 10 µg/mL amounted to 1%. For the same molecule, the inhibition at 25 µg/mL under setting [9] is -7%. Besides, under setting [10], the inhibition at 100 µg/mL was found to be 47%.
In the case of `CCCCCCCC(=O)OC[C@H]1O[C@@]2(OC)COC(C)(C)O[C@H]2[C@@H]1OC(=O)CCCCCCC` [Ij, methyl 1,3-O-isopropylidene-4,6-di-O-octanoyl-α-D-fructofuranoside], the inhibition at 0.01 µg/mL under setting [11] was determined as 60%, the inhibition at 0.01 µg/mL under setting [12] turned out to be 100%, the inhibition at 0.01 µg/mL under setting [14] came out at 3% and the inhibition at 0.01 µg/mL under setting [15] was -42%. The inhibition at 0.1 µg/mL by setting is: under setting [13], 100%; under setting [16], 12%. For the same molecule, the inhibition at 1 µg/mL was 100% under setting [1] and -9% under setting [6]. In addition, the inhibition at 2.5 µg/mL was determined as 100% under setting [2] and 15% under setting [7]. In addition, the inhibition at 10 µg/mL is, setting by setting: under setting [3], 100%; under setting [8], 43%. Also, the inhibition at 25 µg/mL was found to be 100% under setting [4] and 79% under setting [9]. The inhibition at 100 µg/mL reads like this: under setting [5], 100%; under setting [10], 92%.
Consider `CCCCCCCO[C@@H]1[C@@H](CO)O[C@@]2(CO)OC(C)(C)O[C@@H]12` [Ik, 2,3-O-isopropylidene-4-O-heptyl-β-D-fructofuranose], for which the “Blastogenic response of normal spleen cells to Con-A” value (“Blastogenic response” below) (ConA 1 ug/ml, compound 0.001 ug/ml) is 139.5 ± 4.0 × 10^-3 cpm; the “Blastogenic response” value (ConA 1 ug/ml, compound 0.01 ug/ml) is recorded as 146.4 ± 5.2 × 10^-3 cpm; the “Blastogenic response” value (ConA 1 ug/ml, compound 0.1 ug/ml) was 145 ± 6.9 × 10^-3 cpm; the “Blastogenic response” value (ConA 1 ug/ml, compound 1 ug/ml) was 119.1 ± 3.3 × 10^-3 cpm; the “Blastogenic response” value (ConA 1 ug/ml, compound 2.5 ug/ml) is given as 98.5 ± 7.0 × 10^-3 cpm; the “Blastogenic response” value (ConA 1 ug/ml, compound 25 ug/ml) is reported as 1.4 ± 0.2 × 10^-3 cpm. In addition, the “Blastogenic response” value is on record as 0.3 ± 0.1 × 10^-3 cpm (ConA 1 ug/ml, compound 100 ug/ml); 167.1 ± 16.7 × 10^-3 cpm (ConA 4 ug/ml, compound 0.001 ug/ml); 212.6 ± 16.3 × 10^-3 cpm (ConA 4 ug/ml, compound 0.01 ug/ml); 183.6 ± 10.4 × 10^-3 cpm (ConA 4 ug/ml, compound 0.1 ug/ml); 135.3 ± 10.8 × 10^-3 cpm (ConA 4 ug/ml, compound 1 ug/ml); 90.4 ± 7.8 × 10^-3 cpm (ConA 4 ug/ml, compound 2.5 ug/ml). Further, the “Blastogenic response” value is on record as 18.4 ± 0.2 × 10^-3 cpm (ConA 4 ug/ml, compound 10 ug/ml); 2.5 ± 0.4 × 10^-3 cpm (ConA 4 ug/ml, compound 25 ug/ml); 0.4 ± 0.1 × 10^-3 cpm (ConA 4 ug/ml, compound 100 ug/ml). For the same molecule, the inhibition at 0.001 µg/mL reads like this: (ConA 1 ug/ml, compound 0.001 ug/ml, read-out: % change from control, ConA blastogenic response) -11%; (ConA 4 ug/ml, compound 0.001 ug/ml, read-out: % change from control, ConA blastogenic response) 8%. In addition, the inhibition at 0.01 µg/mL under setting [12] was -8% and the inhibition at 0.01 µg/mL under setting [15] was -14%. In addition, the inhibition at 0.1 µg/mL is, setting by setting: under setting [13], 3%; under setting [16], 8%. In addition, the inhibition at 1 µg/mL by setting is: under setting [1], 19%; under setting [6], 35%. The inhibition at 2.5 µg/mL stood at 21% under setting [2] and 51% under setting [7]. Further, the inhibition at 10 µg/mL under setting [3] is 79% and the inhibition at 10 µg/mL under setting [8] was found to be 91%. Besides, the inhibition at 25 µg/mL is, setting by setting: under setting [4], 99%; under setting [9], 99%. Besides, the inhibition at 100 µg/mL under setting [5] amounted to 100% and the inhibition at 100 µg/mL under setting [10] is 100%.

The values above are taken from patent US5298494A, “Monosaccharides having anti-proliferation and anti-inflammatory activity, compositions and uses thereof” (Greenwich Pharmaceuticals Incorporated, priority 1993, dated 1994).
